Patent publication US10857201B2, “NNIF and nNIF-related peptides and related methods” (UNIVERSITY OF UTAH RESEARCH FOUNDATION, priority 2016, dated 2020)
“Also recorded” adds a separate entry of the source.

Experiments:
[1] = system: NET formation in E. coli peritonitis; assay: Mouse model of E. coli peritonitis (in vivo NET formation); conditions: for NET formation by peritoneal fluid PMNs / deployment of NETs on the peritoneal surface / number of PMNs in peritoneal fluid: C57BL/6 mice, 3 hours; for NET formation by peritoneal fluid PMNs / deployment of NETs on the peritoneal surface: 10 mg/kg i.p. 1 hour before E. coli i.p.; for number of PMNs in peritoneal fluid: E. coli i.p.; for peritoneal NET formation: Swiss Webster mice infected with E. coli
From the text: FIG. 8A depicts results of peritoneal fluid NET formation (red fluorescence, yellow arrow) assessed by live cell imaging (60× magnification, scale bar=50 μm) and histone H3 release (red dashed line=baseline arbitrarily set at 1). Three mice per group. One way ANOVA with Tukey's post hoc testing, ***P<0.001 for CRISPP and nNIF versus CRISPP-SCR.
FIG. 8B depicts results of NET formation on the surfaces of peritoneal membranes (red fluorescence, yellow arrows) that was quantified by counting the number of NETs that crossed standardized grid lines in […] (60× magnification; scale bar=50 μm) using IMAGEJ™ software. A second experiment yielded a similar pattern. FIGS. 8A and 8B depict C57BL/6 mice that were not pretreated or pretreated with nNIF, CRISPP, or CRISPP-SCR (10 mg/kg i.p.; 1 hour) and were inoculated with E. coli (4.5×10^7 bacteria i.p.). After 3 hours, the animals were sacrificed, and peritoneal fluid (FIG. 8A) and membranes (FIG. 8B) were collected for analysis.
FIG. 8C depicts C57BL/6 mice that were not pretreated (left two bars) or that were pretreated with CRISPP, nNIF, or CRISPP-SCR, and that were inoculated with E. coli i.p. as in FIGS. 8A and 8B. Neutrophil numbers in peritoneal fluid were counted after 3 hours (3-5 mice/group). […]
FIG. 8E depicts peritoneal fluid NET formation, imaged and measured as in FIG. 8A (10 mice/group). *P<0.05 for CRISPP/E. coli and nNIF/E. coli compared to CRISPP-SCR/E. coli and E. coli.
FIG. 8F depicts NET formation on peritoneal membrane surfaces, imaged and quantitated as in FIG. 8B (3 mice in each group). *P<0.05 for E. coli versus control (red dashed line); **P<0.01 for CRISPP-SCR/E. coli versus control; †P<0.05 for CRISPP/E. coli and nNIF/E. coli versus CRISPP-SCR/E. coli. One way ANOVA with Tukey's post-hoc testing applied in FIGS. 8E and 8F. In FIGS. 8E and 8F, Swiss-Webster mice that were not pretreated or that were pretreated with nNIF, CRISPP, or CRISPP-SCR were inoculated with E. coli i.p. as in FIGS. 8A and 8B. After 3 hours, peritoneal fluid and membranes were collected. FIGS. 8A-8F indicate that nNIF and CRISPP inhibit in vivo NET formation.
(§1) C57/BL6 or Swiss-Webster mice were pretreated in blinded fashion with CRISPP (10 mg/kg), nNIF (10 mg/kg), or CRISPP-SCR (10 mg/kg) by i.p. injection 1 hour prior to infection (E. coli, 4.5×10^7 cfu/mouse, i.p.) or inoculation (LPS, 25 mg/kg, i.p.) (SIGMA-ALDRICH®). Control mice were injected with saline alone. The mice were sacrificed in a CO2 chamber 3 hours post-infection/inoculation, and the peritoneal fluid and membrane samples were harvested. Briefly, the abdomen was disinfected and opened in the midline without injuring the muscle. The peritoneal cavity was lavaged with sterile saline solution (1 mL) and analyzed for in vivo NET formation, bacteriology, and leukocyte accumulation. NETs in the peritoneal fluid were qualitatively and quantitatively analyzed using live cell imaging with confocal microscopy and NET-associated histone H3 release assays. NETs on the serosal surface of the peritoneal membrane were assessed quantitatively using live cell imaging, followed by standardized grid analysis of five randomly selected high-power visual fields per tissue sample (IMAGEJ™ software, NIH). Peritoneal bacterial colony forming unit (cfu) counts were quantified by permeabilizing all recovered leukocytes with 0.1% Triton X-100 for 10 minutes and performing serial dilutions and bacterial cultures on 5% sheep blood agar plates (HARDY DIAGNOSTICS™). After a 24-hour incubation, bacterial counts were determined. Total leukocyte counts in the peritoneal lavage were determined in Neubauer chambers using an optical microscope after dilution in Turk's solution (2% acetic acid). Differential leukocyte analysis was performed using a 60× oil immersion objective to assess morphology of cyto-centrifuged cells stained with May-Gruenwald-Giemsa dye. All mice were included in the final analysis.

[2] = system: reactive oxygen species generation by PMNs; assay: Reactive oxygen species generation (dihydrorhodamine, flow cytometry); type: cell-based, human; conditions: LPS 100 ng/mL, 1 hour
Protocol: FIG. 6B is a graph depicting reactive oxygen species generation that was measured by dihydrorhodamine detection after LPS stimulation (100 ng/mL, 1 hour).
Human PMNs isolated from healthy adult whole blood were resuspended to a concentration of 2×10^6 cells/mL in M-199 media and pre-incubated±CRISPP (1 nM) or CRISPP-SCR (1 nM) peptide for 1 hour at 37° C. in 5% CO2/95% air. The PMNs were then stimulated with LPS (100 ng/mL) for 1 hour, washed, and resuspended with a dihydrorhodamine ([…]; MOLECULAR PROBES®) and catalase (1000 Units/mL; SIGMA-ALDRICH®) mixture and incubated at 37° C. for 10 minutes. After incubation, samples were placed at 4° C. and analyzed for ROS-dependent fluorescence using flow cytometry as performed in the University of Utah core facility (BECTON DICKINSON™, […]™ software).
Without being bound by any specific theory, it was hypothesized that placentally expressed HTRA1, a serine protease, regulates the formation of NET-inhibitory peptides through cleavage of AAT. To test this hypothesis, term and preterm placenta were assessed for HTRA1 expression via western blotting. HTRA1 and AAT plasma expression from term and preterm infants and adults were determined by ELISA. Bioactive (0.5 μg) or placental eluted HTRA1 was incubated with AAT (8 μM) for 18 hours at 37° C. Carboxy-terminus fragments of AAT were detected using western blotting and mass spectrometry. […]

[3] = system: nuclear histone H3 citrullination; assay: Histone H3 citrullination in PMA-activated neutrophils (immunocytochemistry); type: cell-based, human; conditions: PMA 20 nM, 15 minutes; peptides 1 nM, Cl-amidine 10 μM
From the text: Green fluorescence=citrullinated-histone H3, magenta fluorescence=nuclear DNA (60× magnification; scale bar=20 μm). The right panel depicts Histone H3 citrullination that was quantified using IMAGEJ™ software (mean citrullinated-histone H3 pixel area per cell±SEM) (n=3). One way ANOVA with Tukey's post hoc testing, *P<0.05.
Imaging was accomplished via confocal microscopy using a FV1000 IX81 confocal microscope and FLUOVIEW™ software (OLYMPUS™). Semi-quantitation was accomplished using IMAGEJ™ software (NIH) to determine the average citrullinated histone H3 content per cell.

[4] = system: LPS-induced peritoneal NET formation; assay: Mouse model of LPS-induced peritonitis (in vivo NET formation); conditions: C57BL/6 mice, i.p. LPS
Protocol: as §1

Substance | NET formation by peritoneal fluid PMNs [1] | deployment of NETs on the peritoneal surface [1] | number of PMNs in peritoneal fluid [1] | peritoneal NET formation [1] | generation of reactive oxygen species (ROS) [2] | nuclear histone H3 citrullination [3] | LPS-induced peritoneal NET formation [4]
M_IPPEVKFNKPFVFLMIDQNTKVPLFMGK [CRISPP, consensus peptide based on factors present in the blood of patients with cancer] | inhibited | inhibited | greater | inhibited | did not inhibit; also recorded: not inhibited | inhibited | inhibited
KFNKPFVFLMIEQNTKSPLFMGKVVNPTQ (listed as Homo sapiens) [nNIF] | inhibited | inhibited | trend was to greater numbers | inhibited | did not inhibit | inhibited | inhibited
